{"source": "patent US5100881A", "about": "(priority 1989, dated 1992)", "key": {"P 388 leukemia": {"test_system": "P 388 leukemia", "parameters": "species or system mice", "settings": "mouse, in vivo"}, "L1210 cells": {"test_system": "L1210 cells", "assay": "cells", "type": "cell-based", "settings": "Mus musculus, L1210, 48 h, read-out: IC50 (concentration which 50% inhibits the proliferation of the control cells)"}}}
{"smiles": "CC[C@]1(O)C[C@@H]2CN(CCc3c([nH]c4ccccc34)[C@@](C(=O)OC)(c3cc4c(cc3OC)N(C)[C@H]3[C@@](O)(C(=O)OC)[C@H](OC(C)=O)[C@]5(CC)C=CCN6CC[C@]43[C@@H]65)C2)C1", "note": "[Vinblastine, vinblastine]", "values": [{"measurement": "SURVIVORS 30 days", "setting": "P 388 leukemia", "result": "1/6"}, {"measurement": "SURVIVORS 60 days", "setting": "P 388 leukemia", "result": "1/6"}, {"measurement": "T/C % (mean survival time test group over untreated control group)", "setting": "P 388 leukemia", "result": 245, "unit": "%"}, {"measurement": "IC50", "setting": "L1210 cells", "result": "2.3 ± 0.5", "unit": "nM"}]}
{"smiles": "CC[C@]1(O)C[C@H]2CN(CCc3c([nH]c4ccccc34)[C@@](C(=O)OC)(c3cc4c(cc3OC)N(C=O)[C@H]3[C@@](O)(C(=O)OC)[C@H](OC(C)=O)[C@]5(CC)C=CCN6CC[C@]43[C@@H]65)C2)C1", "note": "[Vincristine, vincristine]", "values": [{"measurement": "SURVIVORS 30 days", "setting": "P 388 leukemia", "result": "0/6"}, {"measurement": "SURVIVORS 60 days", "setting": "P 388 leukemia", "result": "0/6"}, {"measurement": "T/C % (mean survival time test group over untreated control group)", "setting": "P 388 leukemia", "result": 192, "unit": "%"}, {"measurement": "IC50", "setting": "L1210 cells", "result": "4.2 ± 0.7", "unit": "nM"}]}
